Our source for the CC50 values is patent US7875604B2, “Compounds that inhibit HIV particle formation” (University of Virginia Patent Foundation, priority 2004, dated 2011).

One series concerns MT4 cells. As to the kind of experiment: MTS-based toxicity assay in MT-4 T cell line. The following applies: Table 1, read-out: TC50 (the source's name). As to the method: The dose response assay was performed as follows
MTS-based toxicity assays were performed in parallel to the 3 and 6 point dose response assays.
The six point dose assay in 5BD.1 cells was used to calculate an IC50 for the compounds and data from the MT-4 toxicity assay allowed a TC50 to be calculated.
(Tetrazolium dyes change colour on reduction, which living cells bring about.)

Series [1] in a line: HIV-1 Rev assay toxicity/non-specificity readout (Firefly Luciferase). Format: cell-based. The following applies: human. As to the method:
(§1) The eight compounds listed in Table 1 were also tested in an assay that measured HIV-1 Rev function. The HIV-1 Rev assay is based upon the use of a reporter for detecting whether drug candidates are capable of inhibiting the function of the viral Rev protein. The reporter used for these assays is the Renilla Luciferase protein, which is an enzyme that produces detectable light when mixed with certain chemicals. For this assay, a cell line has been developed in which the production of the reporter by the cells requires the function of HIV-1 Rev. Therefore, if a drug candidate inhibits the function of Rev, it decreases the amount of the reporter produced by the cells. By using Renilla Luciferase as the reporter, the inhibition of Rev is easily detected as a decrease in the amount of light produced by the cells when mixed with the appropriate chemicals. Furthermore, the cell line for this assay has been engineered to use a second similar reporter (Firefly Luciferase) that detects whether drug candidates are toxic.
(§2) Compounds were tested in the Rev assay using the maximum high-test concentration possible based on the supplied stocks as shown in Table 3. Compounds were prepared at a 2× high-test concentration by combining drug stock with tissue culture media at a ratio of 5 μL of drug to 995 μL of media. This 2× high-test sample was subsequently serially diluted in tissue culture media using 1/2 log dilutions. This series of 2× concentrated drug was subsequently diluted 1:1 by combining with an equal volume of cells in media in the 96-well plates used for the assay. Representative data for two of the compounds is also depicted in FIG. 5.
(§3) Leptomycin B is a control compound known to inhibit Rev function.

Series [2] in a line: MTS staining for PBMC viability to measure cytotoxicity. The series is classed as cell-based, human. The settings on record: human. As to the method:
(§4) For the standard PBMC assay, PHA-P stimulated cells from at least two normal donors were pooled (mixed together), diluted in fresh medium to a final concentration of 1×10^6 cells/mL, and plated in the interior wells of a 96 well round bottom microplate at 50 μL/well (5×10^4 cells/well) in a standard format developed by the Infectious Disease Research department of Southern Research Institute. Pooling (mixing) of mononuclear cells from more than one donor is used to minimize the variability observed between individual donors, which results from quantitative and qualitative differences in HIV infection and overall response to the PHA and IL-2 of primary lymphocyte populations. Each plate contains virus/cell control wells (cells plus virus), experimental wells (drug plus cells plus virus) and compound control wells (drug plus media without cells, necessary for MTS monitoring of cytotoxicity). Since HIV-1 is not cytopathic to PBMCs, this allows the use of the same assay plate for both antiviral activity and cytotoxicity measurements. Test drug dilutions were prepared at a 2× concentration in microtiter tubes and 100 μL of each concentration was placed in appropriate wells using the standard format. 50 μL of a predetermined dilution of virus stock was placed in each test well (final MOI≅0.1). The PBMC cultures were maintained for seven days following infection at 37° C., 5% CO2. After this period, cell-free supernatant samples were collected for analysis of reverse transcriptase activity as a measure of virus release. Following removal of supernatant samples, compound cytotoxicity was measured by addition of MTS to the plates for determination of cell viability. Wells were also examined microscopically and any abnormalities were noted.
(§5) At assay termination, assay plates were stained with the soluble tetrazolium-based dye MTS (CellTiter 96 Reagent, Promega) to determine cell viability and quantify compound toxicity. The mitochondrial enzymes of metabolically active cells metabolize MTS to yield a soluble formazan product. This allows the rapid quantitative analysis of cell viability and compound cytotoxicity. […] At termination of the assay, 20 μL of MTS reagent was added per well. The microtiter plates were then incubated 4-6 hrs at 37° C. The incubation intervals were chosen based on empirically determined times for optimal dye reduction. Adhesive plate sealers were used in place of the lids, the sealed plate was inverted several times to mix the soluble formazan product and the plate was read spectrophotometrically at 490/650 nm with a Molecular Devices Vmax or SpectraMaxPlus plate reader.
(§6) Compounds were tested in the PBMC assay using the maximum high-test concentration possible based on the supplied stocks which are listed in table 3. Compounds were prepared at a 2× high-test concentration by combining drug stock with tissue culture media at a ratio of 5 μL of drug to 995 μL of media. This 2× high-test sample was subsequently serially diluted in tissue culture media using 1/2 log dilutions. This series of 2× concentrated drug was subsequently diluted 1:1 by combining with an equal volume of cells in media in the 96-well plates used for the assay.

For another series, the system named is fresh human PBMCs. The series is described as above. Format: cell-based. The protocol: as §4, §5, §6
In another series the test system is HeLa. The series is described as follows: HIV-1 Rev assay toxicity/non-specificity readout (Firefly Luciferase). The series is classed as cell-based. The following applies: 50% inhibition of Firefly Luciferase (toxicity/non-specificity), 24 hours; read-out: TC50 (the source's name). As to the method: as §1, §2, §3
The test system of a further series is U1 cells. The series is described as follows: MTS staining for cell viability in U1 cell assay. Format: cell-based. The following applies: Table 6, MTS, read-out: TC50 (the source's name). The method in brief:
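U1 cells plated with 5 ng/mL TNF-α (final) and compound in 1/2-log dilutions from the highest concentration the stock allowed, then cultured 3 days. Cytotoxicity read by MTS tetrazolium dye reduction at assay end. Assay dropped if Trypan Blue viability was below 70%.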

[3] abbreviates: PBMC plates with HIV-1 BR/93/021, MTS, read-out: TC50.
[4] abbreviates: PBMC plates with HIV-1 NL4-3, MTS, read-out: TC50.

Like-named read-outs stand apart in the source and are kept apart here.

Turning to `COc1ccc2nc(C(F)(F)F)c(C#N)c(N)c2c1` [Compound 104366, 4-amino-6-methoxy-2-(trifluoromethyl)-3-quinolinecarbonitrile], the CC50 in the series on MT4 cells was 28 µM. In series [1] (50% inhibition of Firefly Luciferase (toxicity/non-specificity), 24 hours, read-out: TC50), the CC50 at 24 hours came out at 17.2 µM. For the same compound, the CC50 at 7 days turned out to be 24.9 µM in series [2] (setting [3]) and 22 µM in series [2] (setting [4]).
In the case of `CCc1c(C)nc2sc(C(N)=O)c(N)c2c1C` [Compound 103833, 3-amino-5-ethyl-4,6-dimethylthieno[2,3-b]pyridine-2-carboxamide], the CC50 in the series with MT4 cells is 32 µM; with fresh human PBMCs (human, 7 days) it was more than 37.6 µM. For the same compound, the CC50 at 24 hours in series [1] is more than 37.6 µM. The compound further displayed a CC50 at 7 days in series [2] (TC50) of more than 37.6 µM.
On to `CS(=O)(=O)c1ncc(-c2ccc(Br)cc2)cn1` [Compound 107129, -(4-bromophenyl)-2-(methylsulfonyl)pyrimidine], for which, in the series with MT4 cells, the CC50 came to 10 µM. Moreover, the CC50 at 24 hours in series [1] amounted to 30.9 µM. In addition, the values for the CC50 at 7 days in series [2] (setting [3]) and in series [2] (setting [4]) were 6.26 µM and 4.13 µM, respectively.
On the same counts, the results for `COc1ccc2cc3c(N)n[nH]c3nc2c1` [Compound 89246, 7-methoxy-1H-pyrazolo[3,4-b]quinolin-3-ylamine] are 20 µM, 8.41 µM, 32.7 µM and 21.9 µM.
With `CCc1c(C(=O)Nc2ccccc2)c(C)nc2sc(C(N)=O)c(N)c12` [Compound 75168, 3-amino-4-ethyl-6-methyl-N˜5˜-phenylthieno[2,3-b]pyridine-2,5-dicarboxamide], the CC50 in the series on MT4 cells is more than 100 µM. Moreover, the CC50 at 24 hours in series [1] worked out at 7.91 µM. Further, the CC50 at 7 days in series [2] (setting [3]) and in series [2] (setting [4]) was more than 26.8 µM in each case.
For the compound “2-chloro-N-(4-methylphenyl)-4-(trifluoromethyl)-1,3-thazole-5-carboxamide [Compound 91161]”, the CC50 in the series on MT4 cells was 18 µM; in the series with HeLa, more than 39.5 µM; in the series with fresh human PBMCs (PBMC plates with HIV-1 BR/93/021, MTS, read-out: TC50 (the source's name)), 23.3 µM; in the series with fresh human PBMCs (PBMC plates with HIV-1 NL4-3, MTS, read-out: TC50 (the source's name)), 13.5 µM; in the series with U1 cells, 22.3 µM.
`COc1cccc(NC(=O)c2cc(Cl)nnc2Cl)c1` [Compound 107740, 3,6-dichloro-N-(3-methoxyphenyl)-4-pyridazinecarboxamide]: the CC50 with MT4 cells came to 50 µM. In series [1], this compound displayed a CC50 at 24 hours of 18.5 µM. Besides, the CC50 at 7 days in series [2] (setting [3]) was 18.8 µM; in series [2] (setting [4]), 14.4 µM.
In series [1], `Fc1ccc(Nc2ncnc3ccccc23)cc1Cl` [Compound 109020, N-(3-chloro-4-fluorophenyl)-N-(4-quinazolinyl)amine] registered a CC50 at 24 hours of more than 40.8 µM. Also, in series [2] (TC50), the CC50 at 7 days is more than 40.8 µM. The same compound showed a CC50 in the series with fresh human PBMCs (human, 7 days) of more than 40.8 µM.
